Like-named read-outs stand apart in the source and are kept apart here.
Target: T1, GLP-1R (Homo sapiens, UniProt P43220)
T1 construct: host or cells: GLP-1R CRE-bla CHO-K1 cells
Test: EC20 GLP-1(9-36) PAM cAMP assay: dose response of compound in the presence of fixed concentration of GLP-1(9-36)
Assay type: cell-based
Settings: GLP-1R CRE-bla CHO-K1 cells, read-out: EC20 GLP-1(9-36) PAM EC50
Outline: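 Positive allosteric modulation read as cAMP accumulation: compound titrations (12 points) combined with an EC20 level of GLP-1(9-36) on CHO-K1 GLP-1R CRE-bla cells, IBMX present, 30 min, 37 °C, pH 7.4 buffer. Luminescence converted to cAMP via standards; non-linear fit gave EC50 and Emax.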

[1] = dose response of compound in presence of fixed concentration of GLP-1(9-36)
[2] = compound dose response with fixed concentration of GLP-1(9-36)

T1 sequence (P43220 24-463): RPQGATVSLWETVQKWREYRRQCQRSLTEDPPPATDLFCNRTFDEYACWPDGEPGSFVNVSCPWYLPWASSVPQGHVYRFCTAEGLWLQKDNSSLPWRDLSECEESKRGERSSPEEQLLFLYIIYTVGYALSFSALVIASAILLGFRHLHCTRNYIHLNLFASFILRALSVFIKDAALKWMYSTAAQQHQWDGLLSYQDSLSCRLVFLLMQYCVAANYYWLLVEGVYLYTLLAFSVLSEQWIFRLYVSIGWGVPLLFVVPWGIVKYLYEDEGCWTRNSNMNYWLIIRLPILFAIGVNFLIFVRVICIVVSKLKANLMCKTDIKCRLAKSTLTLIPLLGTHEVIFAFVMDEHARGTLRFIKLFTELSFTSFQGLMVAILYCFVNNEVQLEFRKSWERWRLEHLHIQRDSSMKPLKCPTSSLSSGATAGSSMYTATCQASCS
T1 sequence (P01275 100-127 partner limits assumed): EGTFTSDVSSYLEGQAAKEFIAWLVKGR

Row | SMILES | EC50 [1] [nM] | EC50 [2] [nM]
1 | CCCCCCCOc1ccc(-c2cnc(-c3ccc(C[C@H](NC(=O)c4ccc(C(C)(C)C)cc4)C(=O)NCC(CC4CCOC4)C(=O)O)cc3)nc2)cc1 (stereo partly drawn) [Compound 560] | 800 to 2500 | –
2 | CC(C)(C)c1ccc(C(=O)N[C@@H](Cc2ccc(-c3ncc(-c4ccc(OCC5CCC(C(C)(C)C)CC5)cc4)cn3)cc2)C(=O)NCCC(=O)O)cc1 (stereo partly drawn) [Compound 803] | 800 to 2500 | –
3 | CCCCCCCOc1ccc(-c2cnc(-c3ccc(C[C@H](NC(=O)c4ccc(C(C)(C)C)cc4)C(=O)NCCC(=O)O)cc3)nc2)cc1C1CC1 [Compound 704] | 800 to 2500 | –
4 | CCCCCCCOc1ccc(-c2cnc(-c3ccc(C[C@H](NC(=O)c4ccc(C(C)(C)C)cc4)C(=O)N[C@@H](CC(=O)O)C(=O)N4CCOCC4)cc3)nc2)cc1 [Compound 507] | 800 to 2500 | –
5 | CCCCCCCOc1ccc(-c2cnc(-c3ccc(C[C@H](NC(=O)c4ccc(C(C)(C)C)cc4)C(=O)NC(C(=O)O)c4ccc(C)cc4)cc3)nc2)cc1 (stereo partly drawn) [Compound 454] | 800 to 2500 | –
6 | CCCCCCCOc1ccc(-c2cnc(-c3ccc(C[C@H](NC(=O)c4ccc(C(C)(C)C)cc4)C(=O)NC(CO)CC(=O)O)cc3)nc2)cc1 (stereo partly drawn) [Compound 550] | 800 to 2500 | –
7 | CCCCCCCOc1ccc(-c2cnc(-c3ccc(C[C@H](NC(=O)c4ccc(C(C)(C)C)s4)C(=O)N[C@@H](CC(=O)N[C@@H](CO)C(=O)O)C(=O)O)cc3)nc2)cc1 [Compound 517] | < 800 | –
8 | COc1cccc(C2CCN(c3cnc(-c4ccc(C[C@H](NC(=O)c5ccc(C(C)(C)C)s5)C(=O)N5CC(C(=O)O)C5)cc4)nc3)CC2)c1 [Compound 1477] | – | < 800
9 | CCCCCCCOc1ccc(-c2cnc(-c3ccc(C[C@H](NC(=O)c4ccc(C(C)(C)C)nc4)C(=O)N4CCC[C@H]4C(=O)O)cc3)nc2)cc1 [Compound 1077] | 800 to 2500 | –
10 | C[C@@H](NC(=O)[C@H](Cc1ccc(-c2ncc(-c3ccc(Oc4ccccc4F)nc3)cn2)cc1)NC(=O)c1ccc(C(C)(C)C)s1)C(=O)O [Compound 1009] | 2500 to 5000 | –
11 | CCCCCCCOc1ccc(-c2cnc(-c3ccc(C[C@H](NC(=O)c4ccc(OCCC)cc4)C(=O)N4CCC[C@H]4C(=O)O)cc3)nc2)cc1 [Compound 1071] | 2500 to 5000 | –
12 | CCCCOc1cccc(-c2noc(-c3cnc(-c4ccc(C[C@H](NC(=O)c5ccc(C(C)(C)C)cc5)C(=O)NCCC(=O)O)cc4)nc3)n2)c1 [Compound 759] | 800 to 2500 | –
13 | CC(C)C1CCN(c2cnc(-c3ccc(CC(NC(=O)c4ccc(C(C)(C)C)s4)C(=O)N4CC(C(=O)O)C4)cc3)nc2)CC1 (stereo not drawn) [Compound 1422] | – | 800 to 2500
14 | Cc1ccc(/C=C/c2cnc(-c3ccc(C[C@H](NC(=O)c4ccc(C(C)(C)C)s4)C(=O)N[C@H](C)C(=O)O)cc3)nc2)cc1 [Compound 1264] | – | 800 to 2500
15 | CCCCCCCOc1ccc(-c2cnc(-c3ccc(C[C@H](NC(=O)c4ccc(C(C)(C)C)cc4)C(=O)NC(Cc4c[nH]c5ncccc45)C(=O)O)cc3)nc2)cc1 (stereo partly drawn) [Compound 584] | 800 to 2500 | –
16 | CC(C)(C)c1ccc(C(=O)N[C@@H](Cc2ccc(-c3ncc(-c4ccc(C5CCCC5)cc4)cn3)cc2)C(=O)N2CC(C(=O)O)C2)s1 [Compound 1089] | 800 to 2500 | –
17 | CCCCCCCOc1ccc(-c2cnc(-c3ccc(C[C@H](NC(=O)c4ccc(C(C)(C)C)s4)C(=O)NC(CCS(C)(=O)=O)C(=O)O)cc3)nc2)cc1 (stereo partly drawn) [Compound 597] | < 800 | –
18 | CCCCCCCOc1ccc(-c2cnc(-c3ccc(C[C@H](NC(=O)c4ccc(C(C)(C)C)cc4)C(=O)N[C@@H](CC(=O)O)C(=O)N(C)C)cc3)nc2)cc1 [Compound 503] | 800 to 2500 | –
19 | CC(C)(C)c1ccc(C2CCN(c3cnc(-c4ccc(C[C@H](NC(=O)c5ccc(C(C)(C)C)s5)C(=O)N5CC(C(=O)O)C5)cc4)nc3)CC2)cc1 [Compound 1493] | – | < 800
20 | CCCCCCCOc1ccc(-c2cnc(-c3ccc(C[C@H](NC(=O)c4ccc(C(C)(C)C)cc4)C(=O)N[C@@H](CC(=O)N[C@@H](CO)C(=O)O)C(=O)O)cc3)nc2)cc1 [Compound 481] | 800 to 2500 | –
21 | CCCCCCCOc1ccc(-c2cnc(-c3ccc(C[C@H](NC(=O)c4cc5cc(OC)ccc5[nH]4)C(=O)N[C@H](C)C(=O)O)cc3)nc2)cc1 [Compound 990] | 2500 to 5000 | –
22 | COc1cccc(/C=C/c2cnc(-c3ccc(C[C@H](NC(=O)c4ccc(C(C)(C)C)s4)C(=O)N[C@H](C)C(=O)O)cc3)nc2)c1 [Compound 1263] | – | 2500 to 5000
23 | CCCOc1ccc(-c2cnc(-c3ccc(C[C@H](NC(=O)c4ccc(C(C)(C)C)cc4)C(=O)N[C@H](C)C(=O)O)cc3)nc2)cc1 [Compound 722] | 800 to 2500 | –
24 | CCCCCCCOc1ccc(-c2cnc(-c3ccc(C[C@H](NC(=O)c4ccc(OC)cc4)C(=O)N4CC(C(=O)O)C4)cc3)nc2)cc1 [Compound 1109] | 800 to 2500 | –
25 | CC(C)(C)c1ccc(C(=O)N[C@@H](Cc2ccc(-c3ncc(N4CCC(C(C)(C)C)CC4)cn3)cc2)C(=O)NCCC(=O)O)cc1 [Compound 674] | 5000 to 10000 | –
26 | CCCCCCCOc1ccc(-c2cnc(-c3ccc(C[C@H](NC(=O)c4ccc(C(C)(C)C)s4)C(=O)N4CC(CCN)C4)cc3)nc2)cc1 [Compound 989] | 800 to 2500 | –

Row | SMILES | EC50 [1] [nM] | EC50 [2] [nM]
27 | CC[C@H]1CC[C@H](c2ccc(-c3cnc(-c4ccc(C[C@H](NC(=O)c5ccc(C(C)(C)C)s5)C(=O)O)cc4)nc3)c(F)c2)CC1 [Compound 1363] | – | < 800
28 | CCCCCCCOc1ccc(-c2cnc(-c3ccc(C[C@H](NC(=O)c4cnn(C(C)(C)C)c4)C(=O)NC(C(=O)O)C(O)c4ccccc4)cc3)nc2)cc1 (stereo partly drawn) [Compound 954] | 800 to 2500 | –
29 | CCC[C@H]1CC[C@H](C2CCN(c3cnc(-c4ccc(CC(NC(=O)c5ccc(C(C)(C)C)s5)C(=O)NS(=O)(=O)CC(=O)OC)cc4)nc3)CC2)CC1 (stereo partly drawn) [Compound 1543] | – | < 800
30 | CCCCCCCOc1ccc(-c2cnc(-c3ccc(C[C@@H](NC(=O)c4ccc(C(C)(C)C)cc4)C(=O)NCCC(=O)O)cc3)nc2)cc1 [Compound 433] | 2500 to 5000 | –
31 | CCCCCCCOc1ccc(-c2cnc(-c3ccc(C[C@H](NC(=O)c4ccc(CC(C)C)s4)C(=O)N4CC(C(=O)O)C4)cc3)nc2)cc1 [Compound 1119] | 800 to 2500 | –
32 | CCCCC1CCC(C2CCN(c3cnc(-c4ccc(C[C@H](NC(=O)c5ccc(C(C)(C)C)s5)C(=O)N5CC(C(=O)O)C5)cc4)nc3)CC2)CC1 (stereo partly drawn) [Compound 1428] | – | < 800
33 | CCC1CCC(C2CCN(c3cnc(-c4ccc(C[C@H](NC(=O)c5ccc(C(C)(C)C)s5)C(=O)N5CC(C(=O)O)C5)cc4)nc3)CC2)CC1 (stereo partly drawn) [Compound 1429] | – | < 800
34 | CCCCCCCOc1ccc(-c2cnc(-c3ccc(C[C@H](NC(=O)c4ccc(C(C)(C)C)s4)C(=O)N4C5CCC4C(C(=O)O)C5)cc3)nc2)cc1 (stereo partly drawn) [Compound 1049] | 800 to 2500 | –
35 | CCC[C@H]1CC[C@H](C2CCN(c3cnc(-c4ccc(C[C@H](NC(=O)c5ccc(CC(C)C)s5)C(=O)N5CC(C(=O)O)C5)cc4)nc3)CC2)CC1 [Compound 1522] | – | < 800
36 | CCCCCCCOc1ccc(-c2cnc(-c3ccc(CC(NC(=O)c4ccc(C(C)(C)C)s4)C(=O)N[C@@H](CCCCN)C(=O)O)cc3)nc2)cc1 (stereo partly drawn) [Compound 427] | 800 to 2500 | –
37 | CC[C@H]1CC[C@H](c2ccc(-c3cnc(-c4ccc(C[C@H](NC(=O)c5ccc(C6(C#N)CC6)s5)C(=O)N5CC(C(=O)O)C5)cc4)nc3)cc2)CC1 [Compound 1340] | – | < 800
38 | CCCCCCCOc1ccc(-c2cnc(-c3ccc(C[C@H](NC(=O)c4ccc(C(C)(C)C)s4)C(=O)NCC4(C(=O)OC)CCNCC4)cc3)nc2)cc1 [Compound 605] | < 800 | –
39 | CCCCCCCOc1ccc(-c2cnc(-c3ccc(C[C@H](NC(=O)c4ccc(C(C)(C)C)s4)C(=O)NCCOC)cc3)nc2)cc1 [Compound 386] | 800 to 2500 | –
40 | CCCOc1ccc(-c2cnc(-c3ccc(C[C@H](NC(=O)c4ccc(C(C)(C)C)s4)C(=O)N4CC(C(=O)O)C4)cc3)nc2)cc1 [Compound 785] | 2500 to 5000 | –
41 | CCCCCCCOc1ccc(-c2cnc(-c3ccc(C[C@H](NC(=O)c4ccc(C(C)(C)C)s4)C(=O)NC(C(=O)O)C(O)c4cnccn4)cc3)nc2)cc1 (stereo partly drawn) [Compound 917] | 800 to 2500 | –
42 | CCCCCCCOc1ccc(-c2cnc(-c3ccc(C[C@H](NC(=O)c4ccc(C(C)(C)C)s4)C(=O)N4CCC[C@H]4C(=O)N4CC[C@@H](C(=O)O)C4)cc3)nc2)cc1 [Compound 500] | 800 to 2500 | –
43 | C[C@@H](NC(=O)[C@H](Cc1ccc(-c2ncc(-c3ccc(C(=O)NCC4CCCCC4)cc3)cn2)cc1)NC(=O)c1ccc(C(C)(C)C)s1)C(=O)O [Compound 1043] | 2500 to 5000 | –
44 | CC(C)(C)c1ccc(C(=O)N[C@@H](Cc2ccc(-c3ncc(-c4ccc(-c5cc(Cl)cc(Cl)c5)cc4F)cn3)cc2)C(=O)N2CC(C(=O)O)C2)s1 [Compound 1198] | < 800 | –
45 | CCC[C@H]1CC[C@H](C2CCN(c3cnc(-c4ccc(C[C@H](NC(=O)c5ccc(C(C)(C)C)s5)C(=O)N[C@@H](CC(=O)O)C(=O)O)cc4)nc3)CC2)CC1 [Compound 1463] | – | < 800
46 | C/C=C/CCCOc1ccc(-c2cnc(-c3ccc(C[C@H](NC(=O)c4ccc(C(C)C)cc4)C(=O)NCCC(=O)O)cc3)nc2)cc1 [Compound 714] | 2500 to 5000 | –
47 | COc1ccc(-c2cnc(-c3ccc(C[C@H](NC(=O)c4ccc(C(C)(C)C)s4)C(=O)N[C@H](C)C(=O)O)cc3)nc2)cc1C12CC3CC(CC(C3)C1)C2 [Compound 1054] | 2500 to 5000 | –
48 | CCCCCCCOc1ccc(-c2cnc(-c3ccc(C[C@H](NC(=O)c4ccc(C(C)(C)C)s4)C(=O)NS(=O)(=O)CC)cc3)nc2)cc1 [Compound 420] | < 800 | –
49 | CCCCc1ccc(/C=C/c2cnc(-c3ccc(C[C@H](NC(=O)c4ccc(C(C)(C)C)s4)C(=O)N[C@H](C)C(=O)O)cc3)nc2)cc1 [Compound 1262] | – | 800 to 2500
50 | CC[C@H]1CC[C@H](c2ccc(-c3cnc(-c4ccc(C[C@H](NC(=O)c5ccc(C(C)(C)C)s5)C(=O)N5CC[C@H](C(=O)O)C5)cc4)nc3)cc2)CC1 [Compound 1137] | < 800 | –
51 | CC(C)c1ccc(-c2ccc(-c3cnc(-c4ccc(C[C@H](NC(=O)c5ccc(C(C)(C)C)s5)C(=O)O)cc4)nc3)c(F)c2)cc1 [Compound 1359] | – | 800 to 2500

Reference: patent US10034886B2, “GLP-1 receptor modulators” (Celgene International II SÀRL, priority 2014, dated 2018)
